# Measured values: PMC11502347 (Frontiers in Microbiology, 2024)
# What was measured:
# Mtb CF 61 (MDR) = format: cell-based, Mycobacterium tuberculosis; conditions: MDR clinical isolate; REMA, 7 days
# Mtb CF 48 (MDR) = format: cell-based, Mycobacterium tuberculosis; conditions: MDR clinical isolate; REMA, 7 days
# Mtb CF 165 (MDR) = format: cell-based, Mycobacterium tuberculosis; conditions: MDR clinical isolate; REMA, 7 days
# Mtb CF 171 (MDR) = format: cell-based, Mycobacterium tuberculosis; conditions: MDR clinical isolate; REMA, 7 days
# Mtb CF 162 (MDR) = format: cell-based, Mycobacterium tuberculosis; conditions: MDR clinical isolate; REMA, 7 days
# Mtb CF 105 (MDR) = format: cell-based, Mycobacterium tuberculosis; conditions: MDR clinical isolate; REMA, 7 days
# Mtb CF 169 (Pre-XDR) = format: cell-based, Mycobacterium tuberculosis; conditions: Pre-XDR clinical isolate; REMA, 7 days
# Mtb CF 81 (Pre-XDR) = format: cell-based, Mycobacterium tuberculosis; conditions: Pre-XDR clinical isolate; REMA, 7 days
# Mtb H37Rv [1] = assay: microbe, parasite or virus in culture; format: cell-based, Mycobacterium tuberculosis; conditions: for CIM90 Mtb H37Rv: Sensitive strain, REMA, 7 days; for MIC90: Mycobacterium tuberculosis, H37RV, Table 3
# M. smegmatis = format: cell-based, Mycobacterium smegmatis; conditions: Sensitive; REMA, 2 days
# M. bovis = format: cell-based, Mycobacterium bovis; conditions: Sensitive; REMA, 7 days
# [2] = system: Klebsiella pneumoniae subsp. pneumoniae ATCC 13883 T; assay: microbe, parasite or virus in culture; format: cell-based; conditions: ATCC13883
# [3] = system: Klebsiella oxytoca CCT 0182; assay: microbe, parasite or virus in culture; format: cell-based; conditions: CCT0182
# [4] = system: Staphylococcus saprophyticus subsp. saprophyticus ATCC 15305; assay: microbe, parasite or virus in culture; format: cell-based; conditions: ATCC15305
# [5] = system: Staphylococcus epidermidis ATCC 14990 T; assay: microbe, parasite or virus in culture; format: cell-based; conditions: ATCC14990
# [6] = system: Enterobacter cloacae subsp. cloacae ATCC 13883 T; assay: microbe, parasite or virus in culture; format: cell-based; conditions: ATCC13883
# [7] = system: Enterobacter aerogenes ATCC 13048 T; assay: microbe, parasite or virus in culture; format: cell-based; conditions: Klebsiella aerogenes, ATCC13048
# [8] = system: Enterococcus faecium NCTC 7171 T; assay: microbe, parasite or virus in culture; format: cell-based; conditions: NCTC7171
# [9] = system: Enterococcus faecalis ATCC 29212; assay: microbe, parasite or virus in culture; format: cell-based; conditions: ATCC29212
# [10] = system: Proteus mirabilis ATCC 29906 T; assay: microbe, parasite or virus in culture; format: cell-based; conditions: ATCC29906
# [11] = system: Citrobacter freundii ATCC 8030 T; assay: microbe, parasite or virus in culture; format: cell-based; conditions: ATCC8030
# [12] = system: Candida albicans ATCC 90028; assay: microbe, parasite or virus in culture; format: cell-based; conditions: ATCC90028, Sabouraud broth, 48 h
# [13] = system: Gram-negative, Gram-positive bacteria, and fungi, including Candida albicans; assay: microbe, parasite or virus in culture; format: cell-based; conditions: all the bacterial and fungal strains tested (Table 2), read-out: MIC90 for all species analyzed
# [14] = system: Murine macrophage J774.A1; assay: cells; format: cell-based; conditions: Mus musculus, cytotoxicity, resazurin, exposure 24 and 72 h, which one not given
# MRC-5 fibroblasts = assay: cells; format: cell-based; conditions: Homo sapiens, MRC5; cytotoxicity, resazurin; exposure 24 and 72 h, which one not given
# Mtb H37Rv [15] = assay: Checkerboard assay of Bfx with RFP; format: cell-based, Mycobacterium tuberculosis; conditions: for MIC90: Mycobacterium tuberculosis, H37RV, compound alone, Table S1
# Protocol: To evaluate the interaction between Bfx and RFP, a checkerboard assay was conducted following the methodology proposed by Berenbaum ([Berenbaum, 1978]).Test compounds were serially diluted in Middlebrook 7H9 broth and arranged in a 96-well plate, starting with 2x MIC for each compound. RFP was also diluted horizontally based on its MIC90. The combinations of different concentrations of Bfx and RFP were incubated with Mtb (5 × 10⁵ CFU/mL) at 37°C and 5% CO₂ for 7 days. Post-incubation, 0.01% resazurin was added, and fluorescence readings were taken after 24 h to determine the Fractional Inhibitory Concentration Index (FICI). The combined effects of the compound combinations were classified according to the Fractional Inhibitory Concentration Index (FICI):
# FICI=MICofdrug1incombination/MICofdrug1+MICofdrug2incombination/MICofdrug1
# [16] = system: intracellular Mtb H37Rv in J774.A1 macrophages; assay: Intracellular antimycobacterial activity in infected macrophages; format: cell-based, Mycobacterium tuberculosis; conditions: 10x MIC, 72 h, CFU count
# Protocol: Murine macrophage J774.A1 cells (1 × 10^6 cells/mL) were seeded in 24-well plates and incubated as previously described. After 24 h, the supernatant was discarded, and 1 mL of Mtb inoculum (2 × 10^6 CFU/mL) was added to the wells. The plate was incubated for 2 h to facilitate infection. Subsequently, the supernatant was removed, and the cells were washed with PBS. An amikacin solution (200 μg/mL) was added to ensure the sterility of the extracellular environment. After 2 h, the wells were washed, and treatments were applied (1x, 5x, and 10x MIC90 of Bfx or RFP). The cultures were then incubated for 72 h. After incubation, the cells were lysed using a Triton solution, and the supernatant was collected, serially diluted, and plated on Middlebrook 7H11 medium supplemented with 10% OADC. These plates were incubated for 20–30 days until colony-forming units (CFU) were counted ([Solcia et al., 2021]).
# Mtb H37Rv [17] = assay: In vivo infection and treatment, BALB/c mice; conditions: daily oral 4 weeks, 5n 200 mg/kg, RFP 15 mg/kg; for reduction of bacterial load in the lungs: intranasal infection, 5b; for reduction of the pulmonary load: abstract
# intramacrophagic Mtb = system: intramacrophagic Mtb; set-up: method as in Matsumoto et al. (2006); conditions: at a concentration of 1 μg/mL; experimental conditions not identical; ref Matsumoto et al. (2006); cited from earlier work
SMILES,CIM90 CF 61 (Mtb CF 61 (MDR)),CIM90 CF 48 (Mtb CF 48 (MDR)),CIM90 CF 165 (Mtb CF 165 (MDR)),CIM90 CF 171 (Mtb CF 171 (MDR)),CIM90 CF 162 (Mtb CF 162 (MDR)),CIM90 CF 105 (Mtb CF 105 (MDR)),CIM90 CF 169 (Mtb CF 169 (Pre-XDR)),CIM90 CF 81 (Mtb CF 81 (Pre-XDR)),CIM90 Mtb H37Rv (Mtb H37Rv [1]),CIM90 M. smegmatis (M. smegmatis),CIM90 M. bovis (M. bovis),MIC90 (Mtb H37Rv [1]) [µM],MIC90 [2] [µM],MIC90 [3] [µM],MIC90 [4] [µM],MIC90 [5] [µM],MIC90 [6] [µM],MIC90 [7] [µM],MIC90 [8] [µM],MIC90 [9] [µM],also measured
"NCC[C@H](O)C(=O)N[C@@H]1C[C@H](N)[C@@H](O[C@H]2O[C@H](CN)[C@@H](O)[C@H](O)[C@H]2O)[C@H](O)[C@H]1O[C@H]1O[C@H](CO)[C@@H](O)[C@H](N)[C@H]1O [AMK, amikacin]","> 42,69 μM","12,27 ± 6,77 μM","5,33 ± 0,95 μM","0,24 ± 0,10 μM","> 42,69 μM","7,54 ± 11,48 μM","0,36 ± 0,11 μM","19,52 ± 12,55 μM","3,0 ± 1,00 μM","6,0 ± 2,00 μM","1,5 ± 0,50 μM",–,–,–,–,–,–,–,–,–,–
O=C(Nc1ccc(N2CCSCC2)c(F)c1)c1ccc2no[n+]([O-])c2c1 [Compound 5b],"0,28 ± 0,02 μM","22,76 ± 13,20 μM",–,–,–,"> 66,78 μM","0,40 ± 0,03 μM","0,27 ± 0,00 μM",–,"24,17 ± 13,00 μM",–,0.7,> 200,> 200,> 200,> 200,> 200,> 200,> 200,> 200,"MIC90 [10]: > 200 µM; MIC90 [11]: > 200 µM; MIC90 [12]: > 200 µM; MIC90 [13]: > 200 µM; IC50 [14]: 40.8 µM; IC50 (MRC-5 fibroblasts): 57.1 µM; FICI (Mtb H37Rv [15]; Bfx combined with RFP): 0.11; Results (interaction with RFP) (Mtb H37Rv [15]; Bfx combined with RFP): Synergistic (FICI values less than 0.5 indicate synergy); MIC90 (Mtb H37Rv [15]): 0.7 µM; MIC90 combined (Mtb H37Rv [15]; in the combination 5b + RFP): 0,0625 µM; inhibition of bacterial load within macrophages [16]: 2.3 log10; reduction of bacterial load in the lungs (Mtb H37Rv [17]): 1.45 log10"
O=C(Nc1ccc(N2CCN(c3ccccn3)CC2)c(F)c1)c1ccc2no[n+]([O-])c2c1 [Compound 5n],"0,56 ± 0,47 μM",22.38 ± 9.37 µM,"1,84 ± 1,73 μM","0,26 ± 0,05 μM","2,24 ± 1,47 μM","> 57,26 μM",–,"1,68 ± 1,32 μM",–,"41,07 ± 10,05 μM","27,03 ± 10,43 μM",0.09,> 200,> 200,> 200,> 200,> 200,> 200,> 200,> 200,"MIC90 [10]: > 200 µM; MIC90 [11]: > 200 µM; MIC90 [12]: > 200 µM; MIC90 [13]: > 200 µM; IC50 [14]: > 230 µM; IC50 (MRC-5 fibroblasts): > 222 µM; Results (interaction with RFP) (Mtb H37Rv [15]; Bfx combined with RFP): Synergistic (FICI values less than 0.5 indicate synergy); MIC90 (Mtb H37Rv [15]): 0.09 µM; MIC90 combined (Mtb H37Rv [15]; in the combination 5n + RFP): 0,00578 µM; inhibition of bacterial load within macrophages [16]: 0.9 log10; reduction of the pulmonary load (Mtb H37Rv [17]): 3.0 log10 CFU/mL; reduction of bacterial load in the lungs (Mtb H37Rv [17]): 3.0 log10"
"NNC(=O)c1ccncc1 [INH, isoniazid]","> 182,30 μM","> 182,30 μM","71,56 ± 24,71 μM","> 182,30 μM","> 182,30 μM","> 182,30 μM","> 182,30 μM","> 182,30 μM","0,95 ± 0,43 μM","2,0 ± 0,50 μM",–,0.95,> 500,> 500,> 500,> 500,> 500,> 500,> 500,> 500,MIC90 [10]: > 500 µM; MIC90 [11]: > 500 µM; IC50 [14]: > 729 µM; IC50 (MRC-5 fibroblasts): > 729 µM
"CC(=O)NC[C@H]1CN(c2ccc(N3CCOCC3)c(F)c2)C(=O)O1 [LNZ, linezolid]",–,"33,88 ± 1,27 μM","0,95 ± 0,01 μM","0,58 ± 0,02 μM","0,41 ± 0,03 μM","4,15 ± 0,52 μM","0,95 ± 0,59 μM","0,47 ± 0,32 μM","0,5 ± 0,20 μM","1,0 ± 0,20 μM","0,25 ± 0,1 μM",–,–,–,–,–,–,–,–,–,–
"CO[C@H]1/C=C/O[C@@]2(C)Oc3c(C)c(O)c4c(O)c(c(/C=N/N5CCN(C)CC5)c(O)c4c3C2=O)NC(=O)/C(C)=C\C=C\[C@H](C)[C@H](O)[C@@H](C)[C@@H](O)[C@@H](C)[C@H](OC(C)=O)[C@@H]1C [RFP, rifampicin]","> 30,38 μM","> 30,38 μM","> 30,38 μM","> 30,38 μM","> 30,38 μM","> 30,38 μM","6,95 ± 0,19 μM","> 30,38 μM","0,05 ± 0,01 μM","1,21 ± 0,00 μM","0,10 ± 0,01 μM",0.05,5.1,7.5,0.009,0.001,> 100,> 100,> 100,0.004,"MIC90 [10]: 19.4 µM; MIC90 [11]: 38.9 µM; IC50 [14]: > 122 µM; IC50 (MRC-5 fibroblasts): > 122 µM; MIC90 (Mtb H37Rv [15]): 0.05 µM; MIC90 combined (Mtb H37Rv [15]; in the combination 5b + RFP): 0,00098 µM; MIC90 combined (Mtb H37Rv [15]; in the combination 5n + RFP): 0,00098 µM; inhibition of bacterial load within macrophages [16]: 0.7 log10; reduction of the pulmonary load (Mtb H37Rv [17]): 1.23 log10 CFU/mL; reduction of bacterial load in the lungs (Mtb H37Rv [17]): 1.23 log10"
C[C@]1(COc2ccc(N3CCC(Oc4ccc(OC(F)(F)F)cc4)CC3)cc2)Cn2cc([N+](=O)[O-])nc2O1 [delamanid],–,–,–,–,–,–,–,–,–,–,–,–,–,–,–,–,–,–,–,–,intramacrophagic inhibition (intramacrophagic Mtb): 0.7 log₁₀ CFU/mL
O=[N+]([O-])c1cn2c(n1)OC[C@@H](OCc1ccc(OC(F)(F)F)cc1)C2 [pretomanid],–,–,–,–,–,–,–,–,–,–,–,–,–,–,–,–,–,–,–,–,intramacrophagic inhibition (intramacrophagic Mtb): 0.2 log₁₀ CFU/mL
